Data reported in patent US20240270749A1, “1,2,4-TRIAZOLO[1,5-A]PYRIMIDINE-BASED SLC16A3 INHIBITORS AND THEIR THERAPEUTIC USE” (CEMM - FORSCHUNGSZENTRUM FÜR MOLEKULARE MEDIZIN GMBH, priority 2021, published 2024).
“Also recorded” adds a separate entry of the source. Where two headings read alike, the source gives them in different places.

Tests used:
HAP1 SLC16A1^−/− cells [1] = experiment: Synthetic lethality guided viability screening (CellTiter Glo), HAP1 SLC16A1-/- cells (SLC16A3-dependent); type: cell-based; settings: for IC50 / viability at 10 µM: Homo sapiens; for IC50: from dose response curves; for viability at 10 µM: read-out: HAP1 SLC16A1^−/− % of viability
Method: (§1) Compounds were printed to individual wells of 384 well plates (Corning) with Echo acoustic liquid dispenser (Labcyte). HAP1 cells were seeded using a dispenser (Thermo Fischer Scientific) in density 1,000 cells per well in 50 μl. As controls, DMSO or Bortezomib treatments were used. Viability of cells was assessed after 72 hours with CellTiter Glo (Promega) and % of controls were calculated based on RLU values in DMSO (100%) and Bortezomib (0%) wells. First screening was performed in 10 μM final concentration. Second screening was performed in technical duplicates, in 4 point dose response setting, with concentrations ranging from 13-0.5 μM. Third screening was performed in technical triplicates in 6 point dose response setting, with concentrations ranging from 27-0.11 μM. LAMA84 cells were used in density 3,000 cells per well. AZD3965, BAY-8002, syrosingopine and compounds obtained from third party vendors were tested in 96 well plates, with 2,500 cells per well with manual seeding and treatment. Compound efficacy was determined either by comparing % of control, or by IC50 estimation based on dose response curves (calculated with R package drc, or with GraphPad Prism).
(§2) Table 1: Results of synthetic lethality guided chemical screening assay. HAP1 WT, HAP1 SLC16A1^−/− or HAP1 SLC16A3^−/− cell lines were treated with presented compounds for 72 hours and viability was determined by Cell titer glo assay (Promega). Data are presented either as a percentage of viability in HAP1 SLC16A1^−/− cells compared to controls (DMSO=100% and Bortezomib=0%) upon single dose treatment (10 μM) or as IC50 values obtained from dose response curves.

HAP1 SLC16A3^−/− cells [2] = experiment: Synthetic lethality guided viability screening (CellTiter Glo), HAP1 SLC16A3-/- cells (SLC16A1-dependent); type: cell-based; settings: Homo sapiens, HAP1; 72 hours, Cell titer glo, from dose response curves; read-out: HAP1 SLC16A31^−/− IC50
Method: as §1, §2

HAP1 WT cells = experiment: Synthetic lethality guided viability screening (CellTiter Glo), HAP1 WT cells; type: cell-based; settings: Homo sapiens, 72 hours, Cell titer glo, from dose response curves
Method: as §1, §2

HAP1 SLC16A1^−/− cells [3] = experiment: Lactate Glo lactate accumulation, HAP1 SLC16A1-/- cells; type: cell-based; settings: 10 μM, 6 hours
Method: (§3) Protocol for lactate glo was modified based on Benjamin D et al., Cell Reports, 2018, 25(11):3047-3058.e4. Cells were seeded in 96 well plate in density 30,000 cells per well. Next day cells were treated with tested compounds, AZD3965 and syrosingopine (all in final concentration of 10 μM) or DMSO. After 6 hours of incubation at 37° C., cells were washed twice with PBS, lysed with 0.2N HCl, neutralized with 1M Tris-base (Sigma) and incubated for 1 hour at RT with lactate glo reagents (Promega). Lactate accumulation was then estimated based on luminescence signal.

SLC16A3 = molecular target: T1, SLC16A3 (Homo sapiens, UniProt O15427); experiment: Cellular Thermal Shift Assay (CETSA), HEK293T lysates with HIBIT-tagged SLC16A3; type: binding; settings: HEK293T lysate, HIBIT-tagged SLC16A3, split-nano luciferase readout
T1 construct: expressed in transfected cells; lysate supernatant used
T1 sequence (O15427 1-465): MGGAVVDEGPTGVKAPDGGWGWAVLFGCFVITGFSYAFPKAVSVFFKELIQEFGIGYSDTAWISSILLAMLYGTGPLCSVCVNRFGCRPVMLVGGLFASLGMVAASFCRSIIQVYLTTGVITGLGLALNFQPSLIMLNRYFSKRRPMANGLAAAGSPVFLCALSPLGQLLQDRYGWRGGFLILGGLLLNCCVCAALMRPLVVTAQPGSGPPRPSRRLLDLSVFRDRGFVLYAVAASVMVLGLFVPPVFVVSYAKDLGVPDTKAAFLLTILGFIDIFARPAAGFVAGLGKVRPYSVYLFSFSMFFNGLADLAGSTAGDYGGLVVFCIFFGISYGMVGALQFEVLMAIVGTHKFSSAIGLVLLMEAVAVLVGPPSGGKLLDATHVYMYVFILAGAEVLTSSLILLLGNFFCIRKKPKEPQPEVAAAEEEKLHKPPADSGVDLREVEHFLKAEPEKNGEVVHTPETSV
Method: HEK293T cells with stable expression of HIBIT-tagged SLC16A3 were lysed as described in Hashimoto M et al., ACS Chemical Biology, 2018, 13(6):1480-86. Lysates were then centrifugated at 14,000 RPM, 20 min at 4° C. Supernatant were next incubated with tested compounds or DMSO on ice for 1 hour. After that samples were aliquoted to PCR strips, heated in gradient thermocycler for 6 min and let cool down at room temperature (RT) for 3 min. Samples were then centrifugated at 14,000 RPM, 40 min at 4° C. and protein abundance in supernatants was determined using HIBIT lytic detection system (Promega) in 384 well plate. Reagents for HIBIT detection were diluted in lysis buffer (Hashimoto M et al., loc. cit.) instead of buffer provided with kit. All measurements were done in technical triplicate.

[4] = test system: cells dependent on SLC16A3 in HAP1 and LAMA84 cell lines; experiment: Selectivity counter screen, HAP1 and LAMA84 cell line panel; type: cell-based; settings: panel incl. LAMA84 sgRen/sgSLC16A1/sgSLC16A3, HAP1 dependent on SLC16A7 or SLC16A8, rescue lines
Method: as §1
To get further insights into the selectivity and mode of action of these hits, the inventors created a selection of compounds with similar structure to their hits from the whole library and tested those further. […]

HAP1 SLC16A3^−/− cells [5] = experiment: Lactate Glo lactate accumulation, HAP1 SLC16A3-/- cells; type: cell-based; settings: 10 μM, 6 hours
Method: as §3

[6] = HAP1, single dose 10 μM, 72 hours, Cell titer glo, compared to controls DMSO=100%, Bortezomib=0%

SMILES: CCOc1ccc(NC(=O)CCc2c(C)nc3ncnn3c2C)cc1 [Compound 10]
- IC50 (HAP1 SLC16A1^−/− cells [1]; HAP1, 72 hours, Cell titer glo): 7.07 µM
- viability at 10 µM (HAP1 SLC16A1^−/− cells [1]; [6]): 70.8%
- IC50 (HAP1 SLC16A3^−/− cells [2]): > 30 µM
- IC50 (HAP1 WT cells): > 30 µM

SMILES: Cc1nc2nc(C)c(CCC(=O)Nc3ccc(Br)c(C)c3)c(C)n2n1 [Compound 11]
- viability at 10 µM (HAP1 SLC16A1^−/− cells [1]; [6]): 33.7%

SMILES: CCc1cccc(NC(=O)CCc2c(C)nc3nc(C)nn3c2C)c1 [Compound 12]
- viability at 10 µM (HAP1 SLC16A1^−/− cells [1]; [6]): 36.4%

SMILES: Cc1nc2nc(C)c(CCC(=O)Nc3ccc(C)c(C)c3)c(C)n2n1 [Compound 13]
- lactate accumulation in HAP1 SLC16A1^−/− cells (HAP1 SLC16A1^−/− cells [3]): lactate accumulation comparable to control (syrosingopine); also recorded: significant lactate accumulation was observed
- viability at 10 µM (HAP1 SLC16A1^−/− cells [1]; [6]): 37%
- shift in melting temperature of SLC16A3 (CETSA) (SLC16A3): showed a shift in melting temperature of SLC16A3
- selective killing in HAP1 and LAMA84 cell line panel (in words) [4]: selectively kill only cells dependent on SLC16A3
- lactate accumulation in HAP1 SLC16A3^−/− cells (HAP1 SLC16A3^−/− cells [5]): no accumulation was observed; also recorded: did not affect lactate accumulation

SMILES: CCc1ccc(NC(=O)CCc2c(C)nc3nc(C)nn3c2C)cc1 [Compound 14]
- viability at 10 µM (HAP1 SLC16A1^−/− cells [1]; [6]): 37.5%

SMILES: CCOc1ccc(NC(=O)CCc2c(C)nc3nc(C)nn3c2C)cc1 [Compound 15]
- viability at 10 µM (HAP1 SLC16A1^−/− cells [1]; HAP1, 72 h): 38.5%

SMILES: Cc1nc2nc(C)c(CCC(=O)Nc3ccc(Br)cc3)c(C)n2n1 [Compound 16]
- viability at 10 µM (HAP1 SLC16A1^−/− cells [1]; [6]): 38.7%

SMILES: COc1ccc(NC(=O)CCc2c(C)nc3nc(C)nn3c2C)cc1 [Compound 17]
- viability at 10 µM (HAP1 SLC16A1^−/− cells [1]; HAP1, 72 h): 44.4%

SMILES: Cc1nc2nc(C(F)(F)F)nn2c(C)c1CCC(=O)Nc1cccnc1 [Compound 18]
- IC50 (HAP1 SLC16A1^−/− cells [1]; HAP1, 72 hours, Cell titer glo): 8.41 µM
- IC50 (HAP1 SLC16A3^−/− cells [2]): > 30 µM
- IC50 (HAP1 WT cells): > 30 µM

SMILES: Cc1nc2nc(C(F)(F)F)nn2c(C)c1CCC(=O)Nc1ccccc1 [Compound 19]
- IC50 (HAP1 SLC16A1^−/− cells [1]; HAP1, 72 hours, Cell titer glo): 8.94 µM
- IC50 (HAP1 SLC16A3^−/− cells [2]): > 30 µM
- IC50 (HAP1 WT cells): > 30 µM

SMILES: CCOC(=O)Oc1c(OC)cc(C(=O)O[C@@H]2C[C@@H]3CN4CCc5c([nH]c6cc(OC)ccc56)[C@H]4C[C@@H]3[C@H](C(=O)OC)[C@H]2OC)cc1OC [syrosingopine, reference compound]
- effect on viability of HAP1 SLC16A1^−/− cells (in words) (HAP1 SLC16A1^−/− cells [1]): decreased viability
